T1: Gal8 (Homo sapiens, UniProt O00214)
T1 construct: made in house
T1 sequence (O00214 1-317): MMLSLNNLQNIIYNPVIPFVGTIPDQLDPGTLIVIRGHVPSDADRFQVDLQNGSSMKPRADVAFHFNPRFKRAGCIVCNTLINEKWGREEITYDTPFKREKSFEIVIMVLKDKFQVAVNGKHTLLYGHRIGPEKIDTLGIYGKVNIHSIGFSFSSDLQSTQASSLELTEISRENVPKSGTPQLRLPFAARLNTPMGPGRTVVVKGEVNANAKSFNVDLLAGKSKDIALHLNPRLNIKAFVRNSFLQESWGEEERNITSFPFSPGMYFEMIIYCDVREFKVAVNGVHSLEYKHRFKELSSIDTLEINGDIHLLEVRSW

B1: anti-Gal1 monoclonal antibody 8F4F8G7 (antibody, V domains shown)
VH: EVQLQQSVAEFVRPGASVRLSCTASGFNIKNTYIHWVRQRPEQGLEWIGKIDPANGNTKYVPEFQGKATMTADTSSNTVYLHLSSLTSEDTAIYYCVDGYYGWYFAVWGTGTTVTVSS
VL: QAVVTQESALTTSPGETVTLTCRSSTGAVTTSNYANWVQEKPDHLFTGLIGATNNRAPGVPARFSGSLIGDKAVLTITGAQTEDEAIYFCALWYRNHFIFGSGTKVTVL
notes: Murine hybridoma mAb (deposit PTA-10535), lambda light chain; also called 14-19 8F4-F8-G7; clone 8F4.8F.67

Legend:
HUVEC = HUVEC invasion (BioCoat Angiogenesis system); type: cell-based, human; conditions: HUVEC treated with Gal1
Experimental: HUVEC transfected or not with specific siRNA or pre-incubated with signaling pathway inhibitors were exposed to VEGF or Gal1 with or without lactose, sucrose, 8F4F8G7 mAb or control isotype (IgG1κ) or specific antibodies for VEGFR1 (AP-MAB0702; Abcam), VEGFR2 (AF357; R&D), VEGFR3 (AB89501; Abcam) or VEGF (MAB293; R&D). Cells were processed for proliferation, migration, invasion and tube formation assays. Tumor-associated blood vessels were identified by flow cytometry using Alexa Fluor 647-conjugated anti-CD34 antibody (RAM34; eBioscience).
Invasion assays were performed using the BioCoat Angiogenesis system (BD Biosciences) following manufacturer's recommendations. For assessment of in vivo angiogenesis, growth factor-reduced Matrigel (BD Biosciences) was mixed with Gal1 (0.1 or 3 μM) with or without lactose (30 mM). In another set of experiments, serum-free CM from KS cells infected or not with a retroviral vector expressing Gal1 shRNA and cultured under hypoxic or normoxic conditions, were added to unpolymerized Matrigel and injected subcutaneously into the flanks of either wild-type or Lgals1^−/− (B6) mice or nude mice using a cold syringe. Matrigel embedded with buffer alone was used as negative control and a cocktail containing VEGF (50 ng/ml), heparin (50 U/ml) and TNF (2 ng/ml) was used as positive control. […]

Gal8 = biological target: T1, Gal8; test: Binding of 488-Gal8 to HUVEC; conditions: 488-Gal8 20 μg/ml, mAb 0.5 μM
Experimental: For glycophenotyping, ECs were incubated with biotinylated L-PHA, LEL, SNA, MAL II, PNA and HPA (all from Vector). Recombinant Gal1 was purified as described in Ilarregui et al. (2009) Nat Immunol 10, 981-991. For binding assays, ECs were incubated for 1 h at 4° C. with dyLight 488-labeled galectins in the absence or presence of lactose, sucrose, anti-Gal1 or isotype control mAb or following transfection with GnT5, GCNT1 or scrambled siRNA. Cells were analyzed on a FACSAria (BD Biosciences). For segregation, ECs were treated with Gal1 for 1 h, fixed and incubated for 1 h with anti-human VEGFR2 antibody (55B11; Cell Signaling) as described in Ilarregui et al. (2009) Nat Immunol 10, 981-991. Cells were analyzed on a Nikon laser confocal microscope (Eclipse E800).
DyLight 488-conjugated Gal1 (488-Gal1) was obtained using DyLight labeling kit (Thermo Scientific). Inhibitors of Jak2-STAT3 (AG490; 5 μM), Jnk-SAP (SP600125; 20 μM), p38 (SB202190; 10 μM), HIF-1α (3 μM) and O-glycosylation (benzyl-α-Ga1NAc; 2 mM) were from Calbiochem. Inhibitors of Erk1/2 (U0126; 5 μM), PI(3)K-Akt (Ly294002; 2 μM) and NF-κB (BAY 11-7082; 1 μM), ROS (N-acetyl-cysteine; NAC), N-glycosylation (swainsonine; 3 μM), lactose or sucrose (30 mM) were from Sigma. PNGase F (25 U/μg protein) was from New England Biolabs. […]

Molecule	EC invasion (HUVEC)	effect on binding of Gal8 to the EC surface (Gal8)
rGal1: recombinant human galectin-1	elicited	
B1		did not interfere

Source: patent publication US10456465B2, “Compositions, kits, and methods for the diagnosis prognosis, monitoring, treatment and modulation of post-transplant lymphoproliferative disorders and hypoxia associated angiogenesis disorders using galectin-1” (Dana-Farber Cancer Institute, Inc., priority 2009, dated 2019)
